In PubChem BioAssay AID1259407 (Chemical Carcinogenesis Research Information System (CCRIS), 2018) one finds mutagenic call data, which are given here for 5 compounds.

The data set relates to CCRIS mutagenicity, Ames/micronucleus/aberration tests. The data set is described as follows: CCRIS mutagenicity studies.
Setting [1] is: Test System: AMES SALMONELLA TYPHIMURIUM, Strain/Indicator: TA98, Metabolic Activation: NONE, Method: STANDARD PLATE.
Setting [2] is: Test System: AMES SALMONELLA TYPHIMURIUM, Strain/Indicator: TA100, Metabolic Activation: NONE, Method: STANDARD PLATE.
Where [3] appears, read: Test System: AMES SALMONELLA TYPHIMURIUM, Strain/Indicator: TA100, Metabolic Activation: NONE, Method: PREINCUBATION

Structures are written as SMILES. Active and inactive are the calls of the source. No rule for the calls is given here.

Take `CNc1snc2ccccc12`: the mutagenic call by setting is: under setting [1], “inactive; negative”; (Test System: AMES SALMONELLA TYPHIMURIUM, Strain/Indicator: TA98, Metabolic Activation: S-9, Method: STANDARD PLATE) “inactive; negative”; under setting [2], “inactive; negative”; (Test System: AMES SALMONELLA TYPHIMURIUM, Strain/Indicator: TA100, Metabolic Activation: S-9, Method: STANDARD PLATE) “inactive; negative”; (Test System: AMES SALMONELLA TYPHIMURIUM, Strain/Indicator: TA1535, Metabolic Activation: NONE, Method: STANDARD PLATE) “inactive; negative”; (Test System: AMES SALMONELLA TYPHIMURIUM, Strain/Indicator: TA1535, Metabolic Activation: S-9, Method: STANDARD PLATE) “inactive; negative”. The mutagenic call reads like this: (Test System: AMES SALMONELLA TYPHIMURIUM, Strain/Indicator: TA1537, Metabolic Activation: NONE, Method: STANDARD PLATE) “inactive; negative”; (Test System: AMES SALMONELLA TYPHIMURIUM, Strain/Indicator: TA1537, Metabolic Activation: S-9, Method: STANDARD PLATE) “inactive; negative”.

As to `[N-]=[N+]=NC[C@H]1O[C@H](O)[C@@H](O)[C@@H](O)[C@@H]1O`, the mutagenic call runs as follows: under setting [1], “inactive; negative”; under setting [2], “active; positive”.

For `C=CC(=O)CC`, the mutagenic call by setting is: under setting [3], “active; positive”; (Test System: AMES SALMONELLA TYPHIMURIUM, Strain/Indicator: TA100, Metabolic Activation: RAT, LIVER, S-9, AROCLOR, Method: PREINCUBATION) “active; positive”.

For `CC(C)(C)OC(=O)N/N=C/c1c[n+]([O-])c2ccccc2[n+]1[O-]`, the mutagenic call reads like this: (Test System: AMES SALMONELLA TYPHIMURIUM, Strain/Indicator: TA98, Metabolic Activation: NONE, Method: PREINCUBATION) “active; positive”; (Test System: AMES SALMONELLA TYPHIMURIUM, Strain/Indicator: TA98, Metabolic Activation: S-9, Method: PREINCUBATION) “active; positive”; under setting [3], “active; positive”; (Test System: AMES SALMONELLA TYPHIMURIUM, Strain/Indicator: TA100, Metabolic Activation: S-9, Method: PREINCUBATION) “active; positive”; (Test System: E. COLI, Strain/Indicator: WP2 UVRA (PKM101), Metabolic Activation: NONE) “active; positive”; (Test System: E. COLI, Strain/Indicator: WP2 UVRA (PKM101), Metabolic Activation: S-9) “active; positive”.

With `Cn1cnc(N=O)c1-c1ccccc1`, under setting [2], the mutagenic call was “active; positive”.
